In patent publication US20100041756A1, “METHOD OF MODULATING B CELL FUNCTIONING” (priority 2004, published 2010):
Where “and” joins values, the source holds several entries; their conditions need not be identical. Equal entries are not always repeated. Where two headings read alike, the source gives them in different places.

Tests used:
IL-10 = assay: Serum IL-10 in mice with established CIA (ELISA); format: in vivo, mouse; conditions: 10 days treatment (FIG. 7)
Description: Mice with established CIA were treated with 3,4-DAA or vehicle (n=7) for 10 days (see FIG. 6), then bled. IL-10 in the sera was measured by ELISA.
Inguinal lymph nodes were excised from Tranilast-treated and control mice. Alternatively, inguinal lymph nodes were removed from untreated arthritic mice (day 1-5 of arthritis) and Tranilast was added in vitro. In both cases, LNC were cultured in RPMI 1640 containing FCS (10% v/v), 2-mercaptoethanol (20 μM), L-glutamine (1% w/v), penicillin (100 U/ml) and streptomycin (100 μg/ml) in the presence or absence of type II collagen (50 μg/ml). Secreted cytokines (IFN-γ, IL-5, TNFα and IL-10) were measured after 72 h. by ELISA. In brief, 96 well ELISA plates were coated with the respective capture antibody, blocked with bovine serum albumin (2% w/v), and then incubated with LNC culture supernatants (neat) overnight at 4° C. After washing, bound cytokines were detected using biotinylated detect antibodies. A standard curve was generated using known concentrations of the appropriate recombinant cytokine and the concentrations of cytokines present in culture supernatants were estimated by reference to the standard curve.

[1] = tested on: B cells activated with LPS, anti-CD40 or anti-IgM antibody; assay: B cell proliferation, 3[H]thymidine incorporation (Example 3); format: cell-based, mouse; conditions: for anti-IgM induced proliferation: 12.5-100 μg/ml; for inhibition at 100 µg/mL: Mus musculus, B-cell, 100 μg/ml
Description: FIG. 4 is a graphical representation depicting that B cell proliferation induced by LPS and anti-CD40 is inhibited by Tranilast. B-cells were activated in vitro with LPS or anti-CD40 antibody and 6.25-100 μg/ml tranilast. Proliferation was assessed using ^3[H]thymidine incorporation. LPS and anti-CD40 induced a 92- and 258-fold increase in thymidine incorporation respectively.
FIG. 5 is a graphical representation depicting that B cell proliferation induced by LPS and anti-CD40 and anti-IgM is inhibited by tranilast. B-cells were activated in vitro with LPS or anti-CD40 antibody or anti-IgM antibody, and 12.5-100 μg/ml tranilast. Proliferation was assessed using ^3[H]thymidine incorporation. LPS, anti-CD40 and anti-IgM induced 91- and 81- and 60-fold increases in thymidine incorporation respectively.
B cells were prepared from mouse spleen using rat anti-mouse IgM microbeads and the MACS system.
3 spleens were removed from male DBA/1 mice aged 8-12 weeks. A single cell suspension was prepared by cell-sieve.
Cells were cultured at 1×10^6 cells/ml in 200 μl complete RPMI with glutamine (10% FCS, 1% Pen/Strep, 50 μM 2-Mercaptoethanol, 1 mM Na-Pyruvate) in a 96-well plate for 48 h in the presence of LPS (20 μg/ml), azide-free anti-CD40 monoclonal antibody (10 μg/ml), or azide free F(ab′)2 fragment of anti-IgM monoclonal antibody (20 μg/ml) and 100-6.25 μg/ml tranilast, or vehicle (DMSO).
1 μCi ^3[H]thymidine was added to each well and incubated overnight. Cells were harvested onto a pre-wet filter mat using a Skaton cell harvester. The filter mat was dried in a microwave for 2 minutes at 750 W. The dry filter mat was sealed in a bag using a plate sealer, and the corner cut. 10 ml scintillation fluid was placed in the bag, and spread evenly over the filter mat. The bag was re-sealed and read in a Wallac 1205 plate reader.

[2] = tested on: anti-type II collagen IgG1; assay: Inhibition of anti-type II collagen antibody production in vivo (Example 5); parameters: species or system mouse
Description: Female DBA/1 mice (10 weeks of age) were immunised intraperitoneally on day 1 with 100 μg bovine type II collagen, dissolved in 0.05M Tris/0.2M NaCl, pH 7.4). Tranilast was dissolved in 1% sodium bicarbonate (10 mg/ml) by heating for 1 h at 70° C. Upon cooling, an emulsion was formed. Tranilast was administered intraperitoneally for three weeks (starting on day 1) at a dose of 400 mg/kg, every 2-3 days. Controls received vehicle alone. There were six mice per group.
On day 28 mice were bled and serum levels of anti-type II collagen IgG1 and IgG2a were measured by ELISA, as follows:
1. Polystyrene microtitre plates (Immulon 2, Dynatech Laboratories) were coated with DEAE-purified bovine type II collagen, dissolved in 0.2M NaCl/0.05M Tris, pH 7.4 (5 μg/ml), overnight at 4° C. 2. The plates were washed in phosphate-buffered saline (PBS), then blocked with BSA in PBS (2% w/v) for 1 h at room temperature. 3. After washing in PBS, containing Tween 20 (0.05% v/v), the sera were serially diluted in PBS/Tween, added to the plates and incubated for 2 h at room temperature. 4. After washing in PBS/Tween, bound IgG was detected by incubating goat anti-mouse IgG1 or anti-mouse IgG2a-HRP conjugate ( 1/1000) for 2 h at room temperature. 5. Develop colour reaction using TMB substrate. Stop reaction with 4.5NH2SO4 6. The plates were read at 450 nm on a microtitre plate reader.

[3] = individual mice, day 28, 400 mg/kg i.p. every 2-3 days for three weeks

With `COc1ccc(/C=C/C(=O)Nc2ccccc2C(=O)O)cc1OC` [Tranilast, 2-[[3-(3,4-dimethoxyphenyl)-1-oxo-2-propenyl]amino]benzoic acid] the “circulating IL-10 levels” value (IL-10) was “dose-dependent increase”, the “circulating IL-10 levels” value (IL-10; listed as 3,4-DAA) was “increased IL-10 levels” and the “B cell proliferation induced by LPS or anti-CD40” value ([1]; 37.5 μg/ml, FIG. 5) was “significantly inhibited”. The “B cell proliferation induced by LPS or anti-CD40” value ([1]; 100 μg/ml and 50 μg/ml, FIG. 4) was “significantly inhibited”, the anti-IgM induced proliferation ([1]; FIG. 5) was “effective at all doses assessed” and the anti-IgM induced proliferation ([1]; FIG. 5, listed as tranilast) was “all doses tested inhibited”. For the same molecule, the inhibition at 100 µg/mL ([1]; FIG. 4, read-out: inhibition of B cell proliferation induced by LPS) was 99%, the inhibition at 100 µg/mL ([1]; FIG. 4, read-out: inhibition of B cell proliferation induced by anti-CD40) was 97% and the inhibition at 100 µg/mL ([1]; FIG. 5, read-out: maximum inhibition of B cell proliferation (LPS)) was 96%. The inhibition at 100 µg/mL ([1]; FIG. 5, read-out: maximum inhibition of B cell proliferation (anti-CD40)) was 91%, the inhibition at 100 µg/mL ([1]; FIG. 5, read-out: maximum inhibition of B cell proliferation (anti-IgM)) was 98% and the “Levels of anti-type II collagen IgG1” value ([2]; group comparison, P=0.03, Mann Whitney test) was “significantly higher in the control group versus the Tranilast treated group”. For the same molecule, the “OD450 (dilution 1/100), anti-type II collagen IgG1” value [2, 3] was 0.07 and 0.06 (2×) and 0.31 and 0.08 (2×) and the “Titre (reciprocal), anti-type II collagen IgG1” value [2, 3] was <50 (4×) and <1/50 and 150.
